Structures can show the parent of a compound that is named as a salt. Where two headings read alike, the source gives them in different places.
What was measured:
[1] = system: fibrin-induced microglia activation; test: Image-based assay of fibrin-induced microglia activation (HTS and dose response); assay type: cell-based, rat; conditions: for inhibition at 10 µM: Rattus norvegicus, Microglia, read-out: Fibrin % inhibition
[2] = system: primary rat microglia; test: Cell toxicity (dead cells, size <150 μm2) in LPS assay
[3] = system: primary rat microglia; test: Cell toxicity (dead cells, size <150 μm2) in coated fibrin (cFib) assay;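 also: share of dead cells sized under 150 µm2 at 10 µM in fibrin-stimulated microglia HTS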
[4] = system: LPS-induced microglia activation; test: Image-based assay of LPS-induced microglia activation (HTS and dose response); assay type: cell-based, rat; conditions: for inhibition at 10 µM: Rattus norvegicus, Microglia, read-out: LPS % inhibition
[5] = system: fibrin- and LPS-induced microglia activation; test: cells; assay type: cell-based, rat
[6] = primary HTS, 10 μM, fibrin-stimulated primary microglia
[7] = primary HTS, 10 μM, LPS assay, dead cells size <150 μm2
[8] = primary HTS, 10 μM, fibrin assay, dead cells size <150 μm2
[9] = primary HTS, 10 μM, LPS-stimulated primary microglia
[10] = primary microglia HTS, 10 μM, fibrin-stimulated, cell size >800 μm^2 as marker of activation
[11] = primary microglia HTS, 10 μM, LPS assay, cell size <150 μm^2 as marker of toxicity
[12] = primary microglia HTS, 10 μM, fibrin assay, cell size <150 μm^2 as marker of toxicity
[13] = primary microglia HTS, 10 μM, LPS-stimulated, cell size >800 μm^2 as marker of activation
[14] = HTS of 1907 compounds, quadrant by fibrin and LPS inhibition
[15] = primary microglia HTS, fibrin stimulation, activation = cell size >800 μm2
[16] = primary microglia HTS, LPS stimulation, toxicity = cell size <150 μm2
[17] = primary microglia HTS, fibrin stimulation, toxicity = cell size <150 μm2
[18] = 48 h, primary microglia HTS, LPS stimulation, activation = cell size >800 μm2
[19] = quadrant by fibrin and LPS inhibition in HTS of 1907 compounds
[20] = primary microglia HTS, fibrin stimulation, increased cell size (>800 μm^2) as marker of activation
[21] = primary microglia HTS, LPS stimulation, decreased size (<150 μm^2) as marker of toxicity
[22] = primary microglia HTS, fibrin stimulation, decreased size (<150 μm^2) as marker of toxicity
[23] = primary microglia HTS, LPS stimulation, increased cell size (>800 μm^2) as marker of activation
[24] = 48 h, primary microglia HTS, LPS stimulation, increased cell size (>800 μm^2) as marker of activation

## CCCNC(=O)NS(=O)(=O)c1ccc(Cl)cc1 [Chlorpropamide]
[1]; [6]
  inhibition at 10 µM: 3%
[2]; [7]
  LPS % cell toxicity: 1%
[3]; [8]
  Fibrin % cell toxicity: 1%
[4]; [9]
  inhibition at 10 µM: 17%
[5]; primary HTS, 10 μM
  Quadrant (FIG. 5b): Q4

## N[C@@H](Cc1cc(I)c(Oc2cc(I)c(O)c(I)c2)c(I)c1)C(=O)O [Thyroxine, Levothyroxine]
[1]; [10]
  Fibrin % inhibition: 5%
[2]; [11]
  LPS % cell toxicity: 1%
[3]; [12]
  Fibrin % cell toxicity: 1%
[4]; [13]
  LPS % inhibition: 25%
[5]; [14]
  Quadrant (FIG. 5b): Q4

## O=[N+]([O-])O[C@@H]1CO[C@H]2[C@@H]1OC[C@@H]2O [Isosorbide Mononitrate]
[1]; [15]
  inhibition at 10 µM: -17%
[2]; [16]
  LPS % cell toxicity: 1%
[3]; [17]
  Fibrin % cell toxicity: 0%
[4]; [18]
  inhibition at 10 µM: 15%
[5]; [19]
  Quadrant (FIG. 5b): Q4

## CCCCN(CCCC)CCCOC(=O)c1ccc(N)cc1 [Butacaine]
[1]; [6]
  inhibition at 10 µM: -18%
[2]; [7]
  LPS % cell toxicity: 0%
[3]; [8]
  Fibrin % cell toxicity: 0%
[4]; [9]
  inhibition at 10 µM: 3%
[5]; primary HTS, 10 μM
  Quadrant (FIG. 5b): Q4

## O=C(O)c1ccccc1Nc1cccc(C(F)(F)F)c1 [Flufenamic Acid]
[1]; [15]
  inhibition at 10 µM: -20%
[2]; [16]
  LPS % cell toxicity: 0%
[3]; [17]
  Fibrin % cell toxicity: 0%
[4]; [18]
  inhibition at 10 µM: -1%
[5]; [19]
  Quadrant (FIG. 5b): Q4

## COc1cc(/C=C/C(=O)N2CCCCCCC2)cc(OC)c1OC [Cinoctramide]
[1]; [20]
  Fibrin % inhibition: 90%
[2]; [21]
  LPS % cell toxicity: 1%
[3]; [22]
  Fibrin % cell toxicity: 4%
[4]; [23]
  LPS % inhibition: 53%
[5]; [19]
  Quadrant (FIG. 5b): Q2

## O=C(COc1ccc(Cl)cc1)N1CCN(Cc2ccc3c(c2)OCO3)CC1 [Fipexide Hydrochloride]
[1]; [15]
  inhibition at 10 µM: -15%
[2]; [16]
  LPS % cell toxicity: 0%
[3]; [17]
  Fibrin % cell toxicity: 0%
[4]; [18]
  inhibition at 10 µM: 11%
[5]; [19]
  Quadrant (FIG. 5b): Q4

## CC(=O)[C@H]1CC[C@H]2[C@@H]3CC[C@H]4C[C@](C)(O)CC[C@]4(C)[C@H]3CC[C@]12C [Ganaxolone]
[1]; [15]
  inhibition at 10 µM: -38%
[2]; [16]
  LPS % cell toxicity: 0%
[3]; [17]
  Fibrin % cell toxicity: 1%
[4]; [18]
  inhibition at 10 µM: 12%
[5]; [19]
  Quadrant (FIG. 5b): Q4

## CN1CCCN=C1COC(=O)C(O)(c1ccccc1)C1CCCCC1 (stereo not shown) [Oxyphencyclimine]
[1]; [20]
  inhibition at 10 µM: 15%
[2]; [21]
  LPS % cell toxicity: 0%
[3]; [22]
  Fibrin % cell toxicity: 1%
[4]; [24]
  inhibition at 10 µM: 11%
[5]; [19]
  Quadrant (FIG. 5b): Q4

## COc1c2occc2c(OC)c2c(=O)cc(C)oc12 [Khellin]
[1]; [15]
  inhibition at 10 µM: -16%
[2]; [16]
  LPS % cell toxicity: 0%
[3]; [17]
  Fibrin % cell toxicity: 0%
[4]; [18]
  inhibition at 10 µM: 5%
[5]; [19]
  Quadrant (FIG. 5b): Q4

## Clc1ccc(CCC(Cn2ccnc2)Sc2c(Cl)cccc2Cl)cc1 (stereo not shown) [Butoconazole]
[1]; [6]
  inhibition at 10 µM: -51%
[2]; [7]
  LPS % cell toxicity: 0%
[3]; [8]
  Fibrin % cell toxicity: 0%
[4]; [9]
  inhibition at 10 µM: 10%
[5]; primary HTS, 10 μM
  Quadrant (FIG. 5b): Q4

## CC1(C)S[C@@H]2[C@H](NC(=O)C(C(=O)O)c3ccccc3)C(=O)N2[C@H]1C(=O)O (stereo partly shown) [Carbenicillin]
[1]; [6]
  inhibition at 10 µM: -4%
[2]; [7]
  LPS % cell toxicity: 0%
[3]; [8]
  Fibrin % cell toxicity: 1%
[4]; [9]
  inhibition at 10 µM: 4%
[5]; primary HTS, 10 μM
  Quadrant (FIG. 5b): Q4

## CCOC(=O)C1=C[C@@H](OC(CC)CC)[C@H](NC(C)=O)[C@@H](N)C1 [Oseltamivir Phosphate]
[1]; [20]
  Fibrin % inhibition: −7%
[2]; [21]
  LPS % cell toxicity: 0%
[3]; [22]
  Fibrin % cell toxicity: 1%
[4]; [23]
  LPS % inhibition: 13%
[5]; [19]
  Quadrant (FIG. 5b): Q4

## CC(C(=O)O)c1ccc(N2Cc3ccccc3C2=O)cc1 (stereo not shown) [Indoprofen]
[1]; [15]
  inhibition at 10 µM: -34%
[2]; [16]
  LPS % cell toxicity: 0%
[3]; [17]
  Fibrin % cell toxicity: 1%
[4]; [18]
  inhibition at 10 µM: 18%
[5]; [19]
  Quadrant (FIG. 5b): Q4

## O=C(O)c1cc(-c2ccccc2)nc2ccccc12 [Cinchophen]
[1]; [6]
  inhibition at 10 µM: -9%
[2]; [7]
  LPS % cell toxicity: 0%
[3]; [8]
  Fibrin % cell toxicity: 1%
[4]; [9]
  inhibition at 10 µM: 36%
[5]; primary HTS, 10 μM
  Quadrant (FIG. 5b): Q4

## C[C@H](O)C(=O)Nc1c(I)c(C(=O)NC(CO)CO)c(I)c(C(=O)NC(CO)CO)c1I [Iopamidol]
[1]; [15]
  inhibition at 10 µM: -14%
[2]; [16]
  LPS % cell toxicity: 0%
[3]; [17]
  Fibrin % cell toxicity: 1%
[4]; [18]
  inhibition at 10 µM: -4%
[5]; [19]
  Quadrant (FIG. 5b): Q4

## COc1ccc2cc([C@H](C)CO)ccc2c1 [Naproxol]
[1]; [20]
  inhibition at 10 µM: -10%
[2]; [21]
  LPS % cell toxicity: 0%
[3]; [22]
  Fibrin % cell toxicity: 0%
[4]; [24]
  inhibition at 10 µM: 16%
[5]; [19]
  Quadrant (FIG. 5b): Q4

## CN(C)[C@@H]1C(O)=C(C(N)=O)C(=O)[C@@]2(O)C(O)=C3C(=O)c4c(O)ccc(Cl)c4[C@@](C)(O)[C@H]3C[C@@H]12 [Chlortetracycline]
[1]; [6]
  inhibition at 10 µM: -15%
[2]; [7]
  LPS % cell toxicity: 0%
[3]; [8]
  Fibrin % cell toxicity: 1%
[4]; [9]
  inhibition at 10 µM: -6%
[5]; primary HTS, 10 μM
  Quadrant (FIG. 5b): Q4

## CN1C(=O)CCS(=O)(=O)C1c1ccc(Cl)cc1 (stereo not shown) [Chlomezanone, Chlormezanone]
[1]; [6]
  Fibrin % inhibition: −52%
[2]; [7]
  LPS % cell toxicity: 0%
[3]; [8]
  Fibrin % cell toxicity: 1%
[4]; [9]
  LPS % inhibition: 12%
[5]; primary HTS, 10 μM
  Quadrant (FIG. 5b): Q4

## Cc1ccc(S(=O)(=O)NC(=O)NN2CC3CCCC3C2)cc1 (stereo not shown) [Gliclazide]
[1]; [15]
  inhibition at 10 µM: 1%
[2]; [16]
  LPS % cell toxicity: 0%
[3]; [17]
  Fibrin % cell toxicity: 1%
[4]; [18]
  inhibition at 10 µM: 20%
[5]; [19]
  Quadrant (FIG. 5b): Q4

## CCN(CC)CCNC(=O)c1ccc(NC(C)=O)cc1.Cl
[1]; [20]
  Fibrin % inhibition: −11%
[2]; [21]
  LPS % cell toxicity: 1%
[3]; [22]
  Fibrin % cell toxicity: 0%
[4]; [23]
  LPS % inhibition: 9%
[5]; [19]
  Quadrant (FIG. 5b): Q4

## Nc1ncnc2c1ncn2[C@@H]1O[C@H](CO)[C@@H](O)[C@@H]1O [Vidarabine]
[1]; [10]
  inhibition at 10 µM: -3%
[2]; [11]
  LPS % cell toxicity: 0%
[3]; [12]
  Fibrin % cell toxicity: 1%
[4]; [13]
  inhibition at 10 µM: 14%
[5]; [14]
  Quadrant (FIG. 5b): Q4

## CC(C)[C@H](N)C(=O)OCC(CO)OCn1cnc2c(=O)nc(N)[nH]c21 (stereo partly shown) [Valganciclovir]
[1]; [10]
  inhibition at 10 µM: -12%
[2]; [11]
  LPS % cell toxicity: 1%
[3]; [12]
  Fibrin % cell toxicity: 0%
[4]; [13]
  inhibition at 10 µM: 14%
[5]; [14]
  Quadrant (FIG. 5b): Q4

## C[N+]1(C)CCCC(OC(=O)C(O)(c2ccccc2)c2ccccc2)C1 (stereo not shown) [Mepenzolate]
[1]; [20]
  inhibition at 10 µM: 45%
[2]; [21]
  LPS % cell toxicity: 1%
[3]; [22]
  Fibrin % cell toxicity: 1%
[4]; [24]
  inhibition at 10 µM: 34%
[5]; [19]
  Quadrant (FIG. 5b): Q4

## O=C1C(CC[S+]([O-])c2ccccc2)C(=O)N(c2ccccc2)N1c1ccccc1 (stereo not shown) [Sulfinpyrazone]
[1]; [10]
  inhibition at 10 µM: -6%
[2]; [11]
  LPS % cell toxicity: 1%
[3]; [12]
  Fibrin % cell toxicity: 1%
[4]; [13]
  inhibition at 10 µM: 13%
[5]; [14]
  Quadrant (FIG. 5b): Q4

## Cc1scc2c1N(C(=O)CN1CCN(C)CC1)c1ccccc1NC2=O
[1]; [10]
  Fibrin % inhibition: 3%
[2]; [11]
  LPS % cell toxicity: 0%
[3]; [12]
  Fibrin % cell toxicity: 1%
[4]; [13]
  LPS % inhibition: 14%
[5]; [14]
  Quadrant (FIG. 5b): Q4
